# According to patent publication US10465005B2, “JAML specific binding agents, antibodies, and uses related thereto” (Emory University, priority 2011, dated 2019):
# “Also recorded” adds a separate entry of the source.
# T1: CHO-JAML-His and CHO JAML-6xMyc (Homo sapiens, UniProt Q86YT9)
# T1 construct: 6xMyc (cell line CHO JAML-6xMyc); expressed in transfected cells
# T1 sequence (Q86YT9 20-394): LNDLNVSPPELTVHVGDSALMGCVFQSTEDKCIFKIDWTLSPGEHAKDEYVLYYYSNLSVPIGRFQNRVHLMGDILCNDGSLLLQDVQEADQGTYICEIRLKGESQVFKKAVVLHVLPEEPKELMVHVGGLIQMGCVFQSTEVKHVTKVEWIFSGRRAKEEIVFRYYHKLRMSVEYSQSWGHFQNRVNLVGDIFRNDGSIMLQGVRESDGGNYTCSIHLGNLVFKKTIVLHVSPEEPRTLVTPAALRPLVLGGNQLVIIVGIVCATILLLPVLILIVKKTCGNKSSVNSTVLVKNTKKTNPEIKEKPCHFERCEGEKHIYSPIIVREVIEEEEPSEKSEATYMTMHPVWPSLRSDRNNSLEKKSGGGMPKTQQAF
# T2: JAML binding with CAR (Homo sapiens, UniProt Q86YT9)
# T2 construct: soluble JAMLD1D2 was truncated and tagged after residue Leucine259; made in house; host or cells: HEK293T (sJAML-His)
# T2 sequence (Q86YT9 20-259): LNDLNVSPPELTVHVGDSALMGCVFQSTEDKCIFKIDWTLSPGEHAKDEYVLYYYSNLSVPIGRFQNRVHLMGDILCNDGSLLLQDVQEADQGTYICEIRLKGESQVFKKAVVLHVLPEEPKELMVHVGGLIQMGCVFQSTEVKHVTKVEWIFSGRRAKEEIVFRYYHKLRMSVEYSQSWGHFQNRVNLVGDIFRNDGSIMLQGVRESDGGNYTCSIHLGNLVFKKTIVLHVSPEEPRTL
# B1: DW55: monoclonal anti-human JAML antibody (IgG2b,κ); VH SEQ ID NO:20, VL SEQ ID NO:23 (antibody, V domains shown)
# VH: CDVQLVESGGGLVQPGGSRKLSCAASGFTFSDYGMAWVRQAPGKGPEWVAFISNLAYSIYYSDTVTGRFTISRENAKNTLYLEMSSLRSEDTAMYYCARGDYSGGMMDYWGQGT
# VL: VLTSQPASLAVSLGQRATISYRASKSVSTSGYSYMHWNQQKPGQPPRLLIYLVSNLESGVPARFSGSGSGTDFTLNIHPVEEEDAATYYCQHIRELTRSEGGPSWK
# B2: soluble CAR: purified extracellular domain of CAR that was tagged with GST (protein)
# chain: LSITTPEEMIEKAKGETAYLPCKFTLSPEDQGPLDIEWLISPADNQKVDQVIILYSGDKIYDDYYPDLKGRVHFTSNDLKSGDASINVTNLQLSDIGTYQCKVKKAPGVANKKIHLVVLVKPSGARCYVDGSEEIGSDFKIKCEPKEGSLPLQYEWQKLSDSQKMPTSWLAEMTSSVISVKNASSEYSGTYSCTVRNRVGSDQCLLRLNVVPPSNKAG
# modifications: left off: a dimerising Fc or GST
# Columns and labels:
# T84 monolayers = experiment: Epithelial barrier recovery after calcium switch (TER, dextran flux); format: cell-based, human; settings: 30 μg/ml, 20 m/ml, up to 24 hours, FIG. 9A
# Experimental: T84 monolayers grown on permeable supports were subjected to transient calcium depletion by preincubation in Ca2+ free buffer (PBS) for 40 min to disassemble tight junctions, followed by switching back to calcium containing medium without (No Tx), or with sJAML or a control recombinant IgSF protein sSIRPa (30 μg/ml). Barrier recovery was measured as transepithelial resistance (TER) at time points as indicated.
# FIG. 9B. Flux of fluorescently labeled dextran (3 k) was measured at the 24 h time point for conditions as described in panel A. N=4.
# Since CAR plays a role in epithelial barrier, the effect of soluble JAML on epithelial barrier recovery was tested. Transepithelial resistance (TER) recovery experiments and dextran flux assay were performed with T84 cells grown in transwells (FIG. 9) as well as with Caco2 cells. […] As a negative control, a related soluble IgSF molecule SIRPalpha had no effect.
# PMN = experiment: Surface JAML on PMN after activation (flow cytometry); format: cell-based, human
# Experimental: Freshly isolated PMN, not treated (No Tx), or treated with either fMLF (100 nM) or PMA (200 nM) in suspension for 15 minutes at 37° c. were fixed with 1% paraformaldehyde, stained for JAML (DW100) and CD11b/CD18 (CBRM 1/29) and analyzed for surface expression by flow cytometry.
# Since prior to transepithelial migration PMNs exit the blood vessels, whether JAML expression on PMNs would be preserved during migration across endothelial cells (HDMECs) towards a 10 μM fMLF, as described previously was evaluated. Indeed under similar conditions only a small portion of surface JAML was lost, but most of it was still detectable on PMN surface (FIG. 3B).
# Thus whether PMN activation alone is sufficient to induce the loss of surface JAML or whether direct contact with the epithelium is required was examined. To test this, the expression of JAML was analyzed on PMNs that were stimulated in suspension with fMLF (100 μM) and PMA (200 nM). PMNs were allowed to adhere to epithelial cells for 1 hour. The loss of JAML could be correlated to the degree of PMN activation. […] This was again confirmed by immunofluorescence (FIG. 4B). PMN adhesion to epithelium in the absence of proinflamatory stimulus (as measured by flow cytometry, gating on Mac-1 positive PMNs) was also sufficient to induce a partial loss of surface JAML (FIG. 4C), in agreement with the small loss of surface JAML observed after migration through endothelial cells (FIG. 3B). […] Next, the observed loss of JAML during PMN activation may be due to its shedding from PMN surface and thus would be detectable in the supernatant of activated cells. To test this hypothesis, two antibodies, DW100 and DW216 that recognize two different epitopes of JAML were used in a sandwich ELISA assay to capture solubilized molecules in the supernatant of activated PMN.
# [1] = target: T1, CHO-JAML-His and CHO JAML-6xMyc; experiment: FACS staining of stably transfected CHO-JAML cell lines; format: binding; settings: FIG. 1A
# From the text: BALB/c mice were immunized with recombinant soluble fragment of JAML.D1D2 tagged with 10 His residues at the C-terminus (sJAML-His), generated in H293T cells and purified by Nickel chromatography. After the 4th boost, mice were given a final immunization and, 3 days later, spleen cells harvested and fused to the myeloma cell line P3U1. Hybridomas were selected in HAT medium and supernatants of clones were subjected to screening first to immobilized, soluble JAML and followed by staining of CHO-JAML stable transfectants. Three hybridomas were selected and antibodies were purified from ascites. FACS staining profiles of mAbs using two different, stably transfected CHO-JAML cell lines, CHO-JAML-His and CHO JAML-6xMyc, both membrane bound and tagged at the C-terminus with either 10-His or 6xMyc. Control antibody is 9E10 anti Myc.
# These hybridomas were further tested for reactivity against tagged, full-length JAML expressed on the surface of cultured cells. CHO-JAML-6XMyc transfectants were aliquoted and pelleted into round bottom 96 well plates. 100 μl hybridoma supernatants were added for 1 hr at 4° C. Cells were washed and positive wells were identified by FACS analysis using Goat anti Mouse-AlexaFluor 488. Cells from positive wells were cloned by limiting dilution at one cell per well and expanded first in DMEM-10% FBS containing HAT then in medium containing HT (ATCC) and later DMEM, 10% FBS. The cloned cells of interest were sent to Harlan Laboratories (Indianapolis, Ind.) for production of ascites. Antibodies were purified from ascitic fluid using proteinA-Sepharose (GE Healthcare) followed by dialysis against PBS. Aliquots were frozen at −80° C. Ig subclass of each antibody was determined by using the IsoStrip Mouse Monoclonal Antibody Isotyping Kit (Roche Applied Science). […]
# Cells suspensions of adherent cells were prepared by trypsinization with Trypsin-EDTA (Sigma). […] After final washes, cells were analyzed using FACS Calibur. […] All samples were stained for JAML (DW100 mAb) and CD11b/CD18 (CBRM 1/29), and only CD11b/CD18 positive cells (PMNs) were analyzed for JAML expression.
# JAML binding with CAR = target: T2, JAML binding with CAR; experiment: CAR binding assay (ELISA, CAR-GST on immobilized sJAML-His); settings: CAR-GST 10 μg/ml on immobilized sJAML-His preincubated with antibody; FIG. 1C
# Experimental: FIG. 1C. CAR binding assay: sJAML-His was coated in Immulon II microtiter microtiter wells overnight, at 4° C. Microtiter wells were washed and blocked and 100 μl antibody solutions were added to wells for 1 hour RT. After washing, CAR-GST was added at 10 μg/ml for 1 hour RT, washed and the assay was developed with HRP conjugated goat anti GST followed by ABTS and OD measurement at 405 nm.
# (§1) Because certain antibodies recognize the membrane distal domain of JAML, their ability to inhibit binding to CAR was tested. By ELISA, the levels of soluble CAR-GST bound to immobilized sJAML-His preincubated with anti JAML antibodies was measured. […] Thus, these antibodies recognize three different epitopes on JAML and that both DW100 and DW55 bind epitopes close to the JAML binding site. Using a cell aggregation assay, the possibility that DW100 could inhibit the binding of JAML to CAR expressed on the surface of cells was examined. […] This again confirms previously described JAML binding to CAR, as well as the specificity of DW100 (blocking) and DW216 (non-blocking) Abs to JAML.
# [2] = system: CHO-JAML and CHO-CAR cells; experiment: CHO-JAML / CHO-CAR cell aggregation assay; format: cell-based; settings: antibodies 30 μg/ml; 1 hour at 37° C.; FIG. 1D
# Experimental: FIG. 1D. CHO-K1 cells stably transfected with either JAML (CHO-JAML) or CAR (CHO-CAR) proteins were allowed to aggregate (1 hour at 37° C. on a shaker at 50 RPM) separately (1×10^6 cells/BSA coated 3 ml Petri dish), or as a mix (5×10^5 each cell type/dish), in the absence or presence of anti-JAML monoclonal antibodies DW100, DW55 and DW216 (30 μg/ml). The number of clusters (left) and the area of the clusters (right) were quantified in 7 randomly chosen fields using light microscopy. The results are representative of four independent experiments. CHO-CAR and CHO-JAML in mixed cultures formed large aggregates.
# as §1
molecule,measurement,setting,value
"SIRPalpha: control recombinant IgSF protein, related soluble IgSF molecule [reference compound]",epithelial barrier recovery (TER) after calcium depletion,T84 monolayers,had no effect
fMLF,JAML expression on PMN after fMLF,PMN; 10 μM fMLF,no significant effect on JAML expression
same,surface JAML on PMN after fMLF,"PMN; 100 μM fMLF, FIG. 4A as described in Example 4",partial but significant loss of JAML
same,surface JAML on PMN after fMLF,"PMN; fMLF 100 nM, suspension, 15 minutes at 37° c., FIG. 4A",partial loss of JAML
B1,FACS staining of CHO-JAML transfectant lines,[1],stained both transfectant lines equally well
same,inhibition of CAR binding to JAML,JAML binding with CAR,inhibit human JAML binding with CAR; also recorded: partially inhibited binding; also recorded: partly inhibitory
B2,aggregation of mixed CHO-CAR and CHO-JAML cultures (number and size of clusters),[2],blocked
